# From patent publication US11999748B2, “Exatecan derivatives, linker-payloads, and conjugates and thereof” (priority 2021, dated 2024)
# System: high HER2 tumor cell line SK-BR-3
# Experiment: Effect of small molecules on cell proliferation (CellTiter-Glo)
# Type: cell-based
# Settings: SK-BR-3, 120 h; (IC50 of control sample Dxd / IC50 of test sample) x 100
# Description: Study Purpose: In this experiment, cell viability was detected using CellTiter-Glo to evaluate the effects of the small molecule compounds on the proliferation of a high HER2 tumor cell line SK-BR-3, and to analyze the effects of the small molecule compounds on the proliferation of tumor cells.
# (4) After the drug was added, the cells were incubated in the incubator for 120 h.
# (3) ATP detection: Discard the culture medium and 100 μl/well DMEM was added, 50 μl/hole CTG was added into 96-well plate, protected from light using aluminum foil and oscillated using a vortex oscillator at room temperature of 200 rpm for 10 min.
# GraphPad software was used to process the data. […] If necessary, the relative biological activity of sample A, i.e., ratio activity was calculated. Dxd was used as the control sample for the ratio activity calculation. Cell proliferation inhibition rate (%)=(luminescence value of drug-treated group−luminescence value of puro group)/(luminescence value of blank control group−luminescence value of puro group)×100 Ratio activity of sample (%)=(IC50 value of the control sample/IC50 value of the test sample)×100 Ratio activity of control sample (%)=(IC50 value of the control sample/IC50 value of the previous control sample)×100
row,SMILES,Ratio activity (%)
1,CC[C@@]1(O)C(=O)OCc2c1cc1n(c2=O)Cc2c-1nc1cc(F)c(Br)c3c1c2C(NC(=O)[C@H](C)O)CC3 (mixture of isomers) [C595],0.832%
2,CC[C@@]1(O)C(=O)OCc2c1cc1n(c2=O)Cc2c-1nc1cc(F)c(Br)c3c1c2[C@H](NC(=O)C(O)C(F)(F)F)CC3 (mixture of isomers) [C619],0.434%
3,CC[C@@]1(O)C(=O)OCc2c1cc1n(c2=O)Cc2c-1nc1cc(F)c(Br)c3c1c2[C@@H](NC(=O)C(O)C(F)(F)F)CC3 (mixture of isomers) [C620],0.384%
4,CC[C@@]1(O)C(=O)OCc2c1cc1n(c2=O)Cc2c-1nc1cc(F)c(Cl)c3c1c2C(NC(=O)[C@H](O)C1CC1)CC3 (mixture of isomers) [C624],0.916%
5,CC[C@@]1(O)C(=O)OCc2c1cc1n(c2=O)Cc2c-1nc1cc(F)c(Cl)c3c1c2C(NC(=O)C[C@H](C)O)CC3 (mixture of isomers) [C625],0.783%
6,CC[C@@]1(O)C(=O)OCc2c1cc1n(c2=O)Cc2c-1nc1cc(F)c(OC)c3c1c2C(NC(=O)CO)CC3 (mixture of isomers) [C664],0.269%
7,CC[C@@]1(O)C(=O)OCc2c1cc1n(c2=O)Cc2c-1nc1cc(F)c(OC)c3c1c2C(NC(=O)C[C@H](C)O)CC3 (mixture of isomers) [C665],0.495%
8,CC[C@@]1(O)C(=O)OCc2c1cc1n(c2=O)Cc2c-1nc1cc(F)c(OC)c3c1c2C(NC(=O)C1(O)CC1)CC3 (mixture of isomers) [C667],0.658%
9,CC[C@@]1(O)C(=O)OCc2c1cc1n(c2=O)Cc2c-1nc1cc(F)c(C)c3c1c2[C@@H](NC(=O)COCCO)CC3 [C504],0.703%
10,"CC[C@@]1(O)C(=O)OCc2c1cc1n(c2=O)Cc2c-1nc1cc(F)c(Cl)c3c1c2[C@@H](NC(=O)CO)CC3 [C518, N-((1S,9S)-4-chloro-9-ethyl-5-fluoro-9-hydroxy-10,13-dioxo-2,3,9,10,13,15-hexahydro-1H,12H-benzo[de]pyrano[3′,4′:6,7]indolizino[1,2-b]quinolin-1-yl)-2-hydroxyacetamide]",2.272%
11,"CC[C@@]1(O)C(=O)OCc2c1cc1n(c2=O)Cc2c-1nc1cc(F)c(Cl)c3c1c2[C@H](NC(=O)CO)CC3 [C519, N-((1R,9S)-4-chloro-9-ethyl-5-fluoro-9-hydroxy-10,13-dioxo-2,3,9,10,13,15-hexahydro-1H,12H-benzo[de]pyrano[3,4′:6,7]indolizino[1,2-b]quinolin-1-yl)-2-hydroxyacetamide]",1.059%
12,CC[C@@]1(O)C(=O)OCc2c1cc1n(c2=O)Cc2c-1nc1cc(F)c(C)c3c1c2[C@@H](NC(=O)[C@@H](OCCO)C1CC1)CC3 [C562],1.029%
13,CC[C@@]1(O)C(=O)OCc2c1cc1n(c2=O)Cc2c-1nc1cc(F)c(C)c3c1c2[C@@H](NC(=O)[C@H](OCCO)C1CC1)CC3 [C563],1.284%
14,CC[C@@]1(O)C(=O)OCc2c1cc1n(c2=O)Cc2c-1nc1cc(F)c(C)c3c1c2[C@@H](NC(=O)C1(OCCO)CC1)CC3 [C565],1.381%
15,CC[C@@]1(O)C(=O)OCc2c1cc1n(c2=O)Cc2c-1nc1cc(F)c(Cl)c3c1c2[C@@H](NC(=O)COCCO)CC3 [C586],0.259%
16,CC[C@@]1(O)C(=O)OCc2c1cc1n(c2=O)Cc2c-1nc1cc(F)c(Cl)c3c1c2[C@H](NC(=O)COCCO)CC3 [C587],0.285%
17,CC[C@@]1(O)C(=O)OCc2c1cc1n(c2=O)Cc2c-1nc1cc(F)c(C)c3c1c2[C@@H](NC(=O)C[C@@H](C)O)CC3 [C588],1.019%
18,"CC[C@@]1(O)C(=O)OCc2c1cc1n(c2=O)Cc2c-1nc1cc(F)c(C)c3c1c2[C@@H](NC(=O)C[C@H](C)O)CC3 [C589, (S)—N-((1S,9S)-9-ethyl-5-fluoro-9-hydroxy-4-methyl-10,13-dioxo-2,3,9,10,13,15-hexahydro-1H,12H-benzo[de]pyrano[3′,4′:6,7]indolizino[1,2-b]quinolin-1-yl)-3-hydroxybutanamide]",1.325%
19,CC[C@@]1(O)C(=O)OCc2c1cc1n(c2=O)Cc2c-1nc1cc(F)c(Cl)c3c1c2[C@@H](NC(=O)C1(O)CC1)CC3 [C593],2.514%
20,CC[C@@]1(O)C(=O)OCc2c1cc1n(c2=O)Cc2c-1nc1cc(F)c(Cl)c3c1c2[C@H](NC(=O)C1(O)CC1)CC3 [C594],0.568%
21,CC[C@@]1(O)C(=O)OCc2c1cc1n(c2=O)Cc2c-1nc1cc(F)c(Br)c3c1c2[C@H](NC(=O)[C@@H](C)O)CC3 [C596],0.911%
22,CC[C@@]1(O)C(=O)OCc2c1cc1n(c2=O)Cc2c-1nc1cc(F)c(Br)c3c1c2[C@@H](NC(=O)[C@@H](C)O)CC3 [C597],0.684%

row,SMILES,Ratio activity (%)
1,CC[C@@]1(O)C(=O)OCc2c1cc1n(c2=O)Cc2c-1nc1cc(F)c(Br)c3c1c2[C@H](NC(=O)C[C@H](C)O)CC3 [C600],0.62%
2,CC[C@@]1(O)C(=O)OCc2c1cc1n(c2=O)Cc2c-1nc1cc(F)c(Br)c3c1c2[C@@H](NC(=O)C[C@H](C)O)CC3 [C601],1.826%
3,CC[C@@]1(O)C(=O)OCc2c1cc1n(c2=O)Cc2c-1nc1cc(F)c(Br)c3c1c2[C@H](NC(=O)C[C@@H](C)O)CC3 [C602],0.29%
4,CC[C@@]1(O)C(=O)OCc2c1cc1n(c2=O)Cc2c-1nc1cc(F)c(Br)c3c1c2[C@@H](NC(=O)C[C@@H](C)O)CC3 [C603],1.439%
5,CC[C@@]1(O)C(=O)OCc2c1cc1n(c2=O)Cc2c-1nc1cc(F)c(Cl)c3c1c2[C@@H](NC(=O)[C@@H](O)C1CC1)CC3 [C622],0.669%
6,CC[C@@]1(O)C(=O)OCc2c1cc1n(c2=O)Cc2c-1nc1cc(F)c(Cl)c3c1c2[C@@H](NC(=O)[C@H](O)C(F)(F)F)CC3 [C626],0.54%
7,CC[C@@]1(O)C(=O)OCc2c1cc1n(c2=O)Cc2c-1nc1cc(F)c(Cl)c3c1c2[C@@H](NC(=O)[C@@H](O)C(F)(F)F)CC3 [C627],5.054%
8,CC[C@@]1(O)C(=O)OCc2c1cc1n(c2=O)Cc2c-1nc1cc(F)c(Br)c3c1c2[C@H](NC(=O)CO)CC3 [C636],0.682%
9,CC[C@@]1(O)C(=O)OCc2c1cc1n(c2=O)Cc2c-1nc1cc(F)c(Br)c3c1c2[C@@H](NC(=O)CO)CC3 [C637],1.585%
10,CC[C@@]1(O)C(=O)OCc2c1cc1n(c2=O)Cc2c-1nc1cc(F)c(OC)c3c1c2C(NC(=O)[C@@H](C)O)CC3 (some centres unmarked) [C668],0.231%
11,CC[C@@]1(O)C(=O)OCc2c1cc1n(c2=O)Cc2c-1nc1cc(F)c(OC)c3c1c2C(NC(=O)C(O)C(F)(F)F)CC3 (some centres unmarked) [C671],0.365%
12,CC[C@@]1(O)C(=O)OCc2c1cc1n(c2=O)Cc2c-1nc1cc(F)c(Cl)c3c1c2[C@@H](NC(=O)[C@@H](C)O)CC3 [C677],1.008%
13,CC[C@@]1(O)C(=O)OCc2c1cc1n(c2=O)Cc2c-1nc1cc(F)c(Cl)c3c1c2[C@H](NC(=O)[C@@H](C)O)CC3 [C678],0.277%
14,CC[C@@]1(O)C(=O)OCc2c1cc1n(c2=O)Cc2c-1nc1cc(F)c(Cl)c3c1c2[C@@H](NC(=O)CCCO)CC3 [C679],0.49%
15,CC[C@@]1(O)C(=O)OCc2c1cc1n(c2=O)Cc2c-1nc1cc(F)c(Cl)c3c1c2[C@H](NC(=O)CCCO)CC3 [C680],0.546%
16,CC[C@@]1(O)C(=O)OCc2c1cc1n(c2=O)Cc2c-1nc1cc(F)c(C)c3c1c2[C@@H](NC(=O)[C@](C)(O)C(F)(F)F)CC3 [C687],1.835%
17,CC[C@@]1(O)C(=O)OCc2c1cc1n(c2=O)Cc2c-1nc1cc(F)c(C)c3c1c2[C@@H](NC(=O)[C@@](C)(O)C(F)(F)F)CC3 [C688],0.744%
18,CC[C@@]1(O)C(=O)OCc2c1cc1n(c2=O)Cc2c-1nc1cc(F)c(Cl)c3c1c2[C@H](NC(=O)[C@](C)(O)C(F)(F)F)CC3 [C703],0.846%
19,CC[C@@]1(O)C(=O)OCc2c1cc1n(c2=O)Cc2c-1nc1cc(F)c(Cl)c3c1c2[C@@H](NC(=O)[C@](C)(O)C(F)(F)F)CC3 [C704],2.271%
20,CC[C@@]1(O)C(=O)OCc2c1cc1n(c2=O)Cc2c-1nc1cc(F)c(Cl)c3c1c2[C@@H](N)CC3 [C730],1.35%
21,CC[C@@]1(O)C(=O)OCc2c1cc1n(c2=O)Cc2c-1nc1cc(F)c(Cl)c3c1c2[C@H](N)CC3 [C731],0.82%
22,"CC[C@@]1(O)C(=O)OCc2c1cc1n(c2=O)Cc2c-1nc1cc(F)c(C)c3c1c2[C@@H](NC(=O)CO)CC3 [Dxd, reference compound]",1%
